Experimental data from publication PMC7362284, “Pharmacokinetic and Lipidomic Assessment of the In Vivo Effects of Parishin A-Isorhynchophylline in Rat Migraine Models” (Journal of Analytical Methods in Chemistry, 2020).
Like-named read-outs stand apart in the source and are kept apart here.

Experiment: Pharmacokinetic study in nitroglycerin-induced migraine model rats (plasma, HPLC-MS/MS)
Assay type: in vivo, rat
Details: for CL/F / MRT last / MRT inf / Vd/F / half-life: female, Sprague-Dawley, po; for CL/F: read-out: CL z/F (converted); for MRT last: read-out: MRT (0 − t); for MRT inf: read-out: MRT (0 − ∞); for Vd/F: read-out: V z/F; for half-life: read-out: t1/2z (converted); for clearance rate (CL z/F), administration-alone group higher than the coadministration group: single administration versus PI coadministration
Method: Healthy Sprague-Dawley (SD) female rats weighing 180 g ± 20 were provided by Hunan SJA Laboratory Animal Co., Ltd. (animal license number: SCXK (Xiang) 2016-0002). Rats underwent adaptive feeding for one week and were fasted for 12 h. Rats had open access to water throughout the study. For pharmacokinetic analysis, 18 SD rats were randomly divided into 3 groups and 0.4 mL of nitroglycerin (dosage: 10 mg/kg) was injected into the forehead to establish the migraine model. […] For blood sampling, 0.3 mL of blood was taken from the rat orbit prior to drug administration and 0, 5, 15, 30, and 45 min and 1, 2, 4, 6, 8, 10, 12, and 24 h after administration. These blood samples were collected into EP tubes coated with heparin sodium. After centrifugation at 4000 rmp for 10 min, supernatants were collected and stored at −80°C.
The mixture was vortexed for 3 min and centrifuged for 10 min at 13000 rpm. 200 μL of supernatants was collected for LC/MS analysis. For GAS and PA assessments, 50 μL of geniposide (IS: 350 ng/mL) and 250 μL of methanol were added to 50 μL of the plasma sample. The mixture was vortexed for 3 min and centrifuged for 10 min at 13000 rpm. 200 μL of supernatants was collected into centrifuge tubes, dried in nitrogen, and dissolved in 200 μL of 5% acetonitrile solution (95 : 5, v : v).
For pharmacokinetic studies, the AB Sciex Triple Quad™ 4500 was used for detection. […] A flow rate of 0.5 mL/min was used with an injection volume of 2 μL. The gradient elution was 0.0–1.2 min, 5% B; 1.2–6.0 min, 5–35% B; 6.0–8.5 min, 35–95% B; 8.5–9.0 min, 5% B; and 9.0–10.0 min, 5% B. Under mass spectrometry conditions, the ESI positive ion mode with multiple reaction monitoring (MRM) was used for detection using the following parameters: ion source temperature = 550°C; ion spray voltage = 4500 V; curtain gas (nitrogen) = 25 psi; atomizing gas (GS 1) = 50 psi; auxiliary gas (GS 2) = 50 psi. […] The IS was pyrrolidone hydrochloride, m/z 357.1–134.1 (DP: 85 V; CE: 35 eV). For GAS and PA, the column temperature was controlled at 40°C; phase A was 0.1% aqueous formic acid, and phase B was acetonitrile; flow rate was 0.5 mL/min; injection volume was 2 μL. The gradient elution was as follows: 0.0–1.2 min, 5% B; 1.2–8.0 min, 5–95% B; 8.0–9.0 min, 95–5% B; 9.0–10.0 min, 5% B; […]. For mass spectrometry, the ESI negative ion mode with MRM mode detection was employed. Mass spectrometry parameters were as follows: ion source temperature = 550°C; ion spray voltage = −4500 V; curtain gas (nitrogen) = 25 psi; atomizing gas (GS 1) = 50 psi; auxiliary gas (GS 2) = 50 psi. Ion pairs were as follows: GAS, m/z 331.1–123.0 (DP: −60 V; CE: −20 V); PA, m/z 995.1–726.9 (DP: −165 V; CE: −39 V). The IS was geniposide, m/z 433.0–225 (DP: −165 V; CE: −20 eV).
DAS 3.2.8 software was used to analyze the plasma concentrations in the different groups across all experimental time points. Time-concentration curves were drawn using Sigma Plot 10.0. For lipidomics, raw data were converted to the common (mzData) format using Agilent MassHunter Qualitative Analysis B.08.00 software (Agilent Technologies, USA). In the R software platform, the XCMS program was used to assess peak identification times, retention time correction, and automatic integration pretreatments. Data were subjected to IS and weight normalization. Visualization matrices containing the sample name, m/z-RT pair, and peak area were obtained. […] After editing, data matrices were imported into SIMCA-P 13.0 (Umetrics, Umea, Sweden), mean-centered, and scaled to Pareto variance. Multivariate analysis was then conducted.

[1] = Combine: PI coadministered (ISO 40 mg/kg, PA 372.4 mg/kg) intragastric, migraine model rats, plasma
[2] = PI coadministration versus single administration, migraine model rats
[3] = Single: PA alone 372.4 mg/kg intragastric, migraine model rats, plasma
[4] = rat, in vivo, Single: PA alone 372.4 mg/kg intragastric, migraine model rats, plasma
[5] = Single: ISO alone 40 mg/kg intragastric, migraine model rats, plasma

For `OCc1ccc(O[C@@H]2O[C@H](CO)[C@@H](O)[C@H](O)[C@H]2O)cc1` [GAS, gastrodin], the “AUC (0 − t)” value [1] was 12757.67 μg/L ∗ h, the “AUC (0 − ∞)” value [1] was 13028.09 μg/L ∗ h and the C-max [1] was 3853.50 µg/L. The T-max [1] was 1.08 h, the “AUC, coadministration higher than the administration-alone group” value [2] was 1.31 fold and the “MRT, coadministration higher than the single-administration group” value [2] was 1.84 fold. The “half-life (t1/2z), coadministration higher than the administration-alone group” value (“half-life (t1/2z)” for short) [2] was 2.79 fold, the “AUC (0 − t)” value [3] was 9934.28 μg/L ∗ h and the “AUC (0 − ∞)” value [3] was 9935.51 μg/L ∗ h. It also gave a C-max [3] of 4082.17 µg/L, a T-max [3] of 0.83 h and a CL/F [4] of 640 mL/min/kg. For the same compound, the MRT last [4] was 2.14 h, the MRT inf [4] was 2.15 h and the Vd/F [4] was 56.6 L/kg. For the same compound, the half-life [4] was 1.02 h.
For `CC[C@H]1CN2CC[C@@]3(C(=O)Nc4ccccc43)[C@@H]2C[C@@H]1/C(=C\OC)C(=O)OC` [ISO, isorhynchophylline], the “AUC (0 − t)” value [1] was 1755.85 μg/L ∗ h, the “AUC (0 − ∞)” value [1] was 1768.51 μg/L ∗ h and the C-max [1] was 867.07 µg/L. For the same compound, the T-max [1] was 0.58 h, the “AUC, coadministration higher than the administration-alone group” value [2] was 1.31 fold and the “half-life (t1/2z)” value [2] was 1.99 fold. The “AUC (0 − t)” value [5] was 1340.01 μg/L ∗ h, the “AUC (0 − ∞)” value [5] was 1340.09 μg/L ∗ h and the C-max [5] was 645.28 µg/L. For the same compound, the T-max [5] was 0.54 h, the CL/F (rat, in vivo, 40 mg/kg) was 1480 mL/min/kg and the MRT last (rat, in vivo, 40 mg/kg) was 1.76 h. The MRT inf (rat, in vivo, 40 mg/kg) was 1.77 h, the Vd/F (rat, in vivo, 40 mg/kg) was 242 L/kg and the half-life (rat, in vivo, 40 mg/kg) was 1.9 h. The “clearance rate (CL z/F), administration-alone group higher than the coadministration group” value (migraine model rats) was 3.15 fold.
For `O=C(CC(O)(CC(=O)OCc1ccc(O[C@@H]2O[C@H](CO)[C@@H](O)[C@H](O)[C@H]2O)cc1)C(=O)OCc1ccc(O[C@@H]2O[C@H](CO)[C@@H](O)[C@H](O)[C@H]2O)cc1)OCc1ccc(O[C@@H]2O[C@H](CO)[C@@H](O)[C@H](O)[C@H]2O)cc1` [PA, parishin A], the stability in plasma (rat, in vivo) was “unstable” and the stability in rats (rat, in vivo) was “unstable”.
In the case of `CC[C@H]1CN2CC[C@]3(C(=O)Nc4ccccc43)[C@@H]2C[C@@H]1/C(=C\OC)C(=O)OC` [RHY, rhynchophylline], the “AUC (0 − t)” value [1] is reported as 412.82 μg/L ∗ h, the “AUC (0 − ∞)” value [1] is reported as 455.57 μg/L ∗ h and the C-max [1] is reported as 94.10 µg/L. For the same compound, the T-max [1] was 0.96 h, the “AUC, coadministration higher than the administration-alone group” value [2] was 1.44 fold and the “half-life (t1/2z)” value [2] was 3.46 fold. For the same compound, the “AUC (0 − t)” value [5] was 313.95 μg/L ∗ h, the “AUC (0 − ∞)” value [5] was 314.00 μg/L ∗ h and the C-max [5] was 88.35 µg/L. The T-max [5] was 0.63 h, the CL/F (rat, in vivo, 40 mg/kg) was 5530 mL/min/kg and the MRT last (rat, in vivo, 40 mg/kg) was 3.21 h. It also gave an MRT inf (rat, in vivo, 40 mg/kg) of 3.21 h, a Vd/F (rat, in vivo, 40 mg/kg) of 663 L/kg and a half-life (rat, in vivo, 40 mg/kg) of 1.63 h. The “clearance rate (CL z/F), administration-alone group higher than the coadministration group” value (migraine model rats) was 3.16 fold.
